Experimental data: patent US12252524B2, “GIP/GLP1 co-agonist compounds” (Eli Lilly and Company, priority 2018, dated 2025)
Numbered stars: 1 amine (or outer) side, 2 acyl side, 3 side chain; on linkers, the order of the positions; unused ones are H or OH. Square brackets hold non-standard residues; d marks the D form. Side chains are listed from the residue outwards. Peptide text beside a SMILES is read from it. * marks the point of attachment. C20 diacid = O=C(O)CCCCCCCCCCCCCCCCCCC(=O)*; γGlu = O=C(O)[C@H](CCC(=O)[*:2])N[*:1]; AEEA = NCCOCCOCC(=O)O; Aib = CC(C)(N)C(=O)O

What was measured:
[1] = molecular target: T1, gastric inhibitory peptide receptor (GIPR) (Homo sapiens, UniProt P48546); assay: cAMP pharmacological functional assay in presence of casein, hGIPR; type: cell-based; details: HEK293 cells expressing hGIPR, 0.1% Casein, geometric mean; read-out: hGIPR cAMP Rel EC50 nM (SEM, n)
T1 sequence (P48546 22-466): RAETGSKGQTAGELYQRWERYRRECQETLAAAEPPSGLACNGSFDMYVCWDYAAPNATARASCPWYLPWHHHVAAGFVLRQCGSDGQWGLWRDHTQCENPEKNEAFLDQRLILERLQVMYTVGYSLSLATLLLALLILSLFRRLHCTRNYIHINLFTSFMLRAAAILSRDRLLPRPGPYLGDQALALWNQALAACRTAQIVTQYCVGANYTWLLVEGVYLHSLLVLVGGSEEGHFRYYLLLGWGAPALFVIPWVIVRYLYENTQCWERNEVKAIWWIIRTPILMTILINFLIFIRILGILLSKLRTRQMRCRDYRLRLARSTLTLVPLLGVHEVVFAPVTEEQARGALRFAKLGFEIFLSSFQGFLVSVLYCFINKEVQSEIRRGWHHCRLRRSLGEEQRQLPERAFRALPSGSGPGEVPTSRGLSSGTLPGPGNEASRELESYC

human GIP receptor = molecular target: T2, human GIP receptor (Homo sapiens, UniProt P48546); assay: [125I]-GIP binding (SPA), human GIP receptor; details: read-out: hGIPR Ki, nM (SEM, n)
T2 construct: expressed in transfected cells; crude membranes
T2 sequence (P48546 22-466): T1 sequence (P48546 22-466)

human GLP-1R = human GLP-1R (Homo sapiens, UniProt P43220); assay: [125I]-GLP-1 binding (SPA), human GLP-1 receptor; design: expressed in transfected cells; crude membranes; details: read-out: hGLP1R Ki, (nM) (SEM, n)
human GLP-1R, sequence (P43220 24-463): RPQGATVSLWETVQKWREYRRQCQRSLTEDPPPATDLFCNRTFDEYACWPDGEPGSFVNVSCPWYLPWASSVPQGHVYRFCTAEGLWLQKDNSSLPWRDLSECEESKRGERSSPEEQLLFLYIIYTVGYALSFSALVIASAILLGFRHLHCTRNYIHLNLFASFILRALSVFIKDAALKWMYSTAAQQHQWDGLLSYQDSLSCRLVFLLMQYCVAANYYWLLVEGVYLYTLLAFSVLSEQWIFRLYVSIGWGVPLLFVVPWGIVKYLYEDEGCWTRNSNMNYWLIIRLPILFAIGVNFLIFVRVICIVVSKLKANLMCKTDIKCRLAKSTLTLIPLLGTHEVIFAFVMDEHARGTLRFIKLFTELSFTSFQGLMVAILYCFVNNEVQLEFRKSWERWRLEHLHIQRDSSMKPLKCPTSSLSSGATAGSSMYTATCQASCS
Outline: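 Frozen cell pellets are lysed on ice in hypotonic Tris buffer, pH 7.5, homogenized, and centrifuged to a membrane pellet resuspended at about 1 to 3 mg/mL. Binding is then measured in HEPES-based buffer at pH 7.4, and curves are fitted to give IC50 and Ki.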

human Gcg receptor = molecular target: T3, human Gcg receptor (Homo sapiens, UniProt P47871); assay: [125I]-Glucagon binding (SPA), human Gcg receptor; details: read-out: hGLcgR Ki, nM (SEM, n)
T3 construct: expressed in transfected cells; crude membranes
T3 sequence (P47871 26-477): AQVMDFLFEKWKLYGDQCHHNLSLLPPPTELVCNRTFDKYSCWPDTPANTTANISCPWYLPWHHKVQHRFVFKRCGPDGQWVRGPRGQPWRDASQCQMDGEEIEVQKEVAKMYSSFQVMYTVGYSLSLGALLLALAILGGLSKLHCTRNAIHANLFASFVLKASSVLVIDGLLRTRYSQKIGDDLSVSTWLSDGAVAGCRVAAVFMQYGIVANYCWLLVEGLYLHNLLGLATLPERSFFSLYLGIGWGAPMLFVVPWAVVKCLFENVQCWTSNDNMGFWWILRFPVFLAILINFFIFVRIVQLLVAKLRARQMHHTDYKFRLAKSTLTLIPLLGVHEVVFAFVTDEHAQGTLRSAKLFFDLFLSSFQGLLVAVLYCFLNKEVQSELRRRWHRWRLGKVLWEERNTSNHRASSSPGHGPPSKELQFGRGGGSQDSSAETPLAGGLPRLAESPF
Outline: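 Crude membranes from cells expressing the receptor, prepared by hypotonic lysis in 50 mM Tris HCl pH 7.5 with protease inhibitors, homogenization and differential centrifugation, were used in a WGA-bead SPA. Binding buffer: 25 mM HEPES pH 7.4, 2.5 mM CaCl2, 1 mM MgCl2, bacitracin, Tween-20.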

[2] = molecular target: human GLP-1 receptor (GLP-1R) (Homo sapiens, UniProt P43220); assay: cAMP pharmacological functional assay in presence of casein, hGLP-1R; type: cell-based; details: HEK293 cells expressing hGLP-1R, 0.1% Casein, geometric mean; read-out: hGLP1R cAMP Rel EC50 nM (SEM, n)
human GLP-1 receptor (GLP-1R), sequence (P43220 24-463): as the sequence (P43220 24-463) above

Row | EC50 [1] | Ki (human GIP receptor) | Ki (human GLP-1R) | Ki (human Gcg receptor) | EC50 [2] | SMILES
1 | 0.161 nM | 0.0514 nM | 13.2 nM | 160 nM | 1.45 nM | CC[C@H](C)[C@H](NC(=O)[C@H](CCCCN)NC(=O)[C@H](CC(=O)O)NC(=O)[C@H](CC(C)C)NC(=O)[C@H](CC(C)C)NC(=O)[C@@H](NC(=O)[C@H](CO)NC(=O)[C@H](Cc1ccc(O)cc1)NC(=O)[C@H](CC(=O)O)NC(=O)[C@H](CO)NC(=O)[C@@H](NC(=O)[C@H](Cc1ccccc1)NC(=O)[C@@H](NC(=O)CNC(=O)[C@H](CCC(=O)O)NC(=O)C(C)(C)NC(=O)[C@@H](N)Cc1ccc(O)cc1)[C@@H](C)O)[C@@H](C)O)[C@@H](C)CC)C(=O)N[C@@H](C)C(=O)N[C@@H](CCC(N)=O)C(=O)NC(C)(C)C(=O)N[C@@H](C)C(=O)N[C@@H](Cc1ccccc1)C(=O)N[C@H](C(=O)N[C@@H](CCC(=O)O)C(=O)N[C@@H](Cc1ccc(O)cc1)C(=O)N[C@@H](CC(C)C)C(=O)N[C@H](C(=O)N[C@@H](CCC(=O)O)C(=O)NCC(=O)NCC(=O)N1CCC[C@H]1C(=O)N[C@@H](CO)C(=O)N[C@@H](CCCCNC(=O)COCCOCCNC(=O)COCCOCCNC(=O)CC[C@H](NC(=O)CCCCCCCCCCCCCCCCCCC(=O)O)C(=O)O)C(=O)NCC(=O)N[C@@H](C)C(=O)N1CCC[C@H]1C(=O)N1CCC[C@H]1C(=O)N1CCC[C@H]1C(=O)N[C@@H](CO)C(N)=O)[C@@H](C)CC)[C@@H](C)CC [Example 42] (H-Y[Aib]EGTFTSDYSILLDKIAQ[Aib]AFIEYLIEGGPSK([AEEA-AEEA-γGlu-C20 diacid])GAPPPS-NH2)
2 | 0.112 nM | 0.101 nM | 11.8 nM | 134 nM | 0.862 nM | CC[C@H](C)[C@H](NC(=O)[C@H](CCCCN)NC(=O)[C@H](CC(=O)O)NC(=O)[C@H](CC(C)C)NC(=O)[C@H](CC(C)C)NC(=O)[C@@H](NC(=O)[C@H](CO)NC(=O)[C@H](Cc1ccc(O)cc1)NC(=O)[C@H](CC(=O)O)NC(=O)[C@H](CO)NC(=O)[C@@H](NC(=O)[C@H](Cc1ccccc1)NC(=O)[C@@H](NC(=O)CNC(=O)[C@H](CCC(=O)O)NC(=O)C(C)(C)NC(=O)[C@@H](N)Cc1ccc(O)cc1)[C@@H](C)O)[C@@H](C)O)[C@@H](C)CC)C(=O)N[C@@H](C)C(=O)N[C@@H](CCC(N)=O)C(=O)NC(C)(C)C(=O)N[C@@H](C)C(=O)N[C@@H](Cc1ccccc1)C(=O)N[C@H](C(=O)N[C@@H](CCC(=O)O)C(=O)N[C@@H](Cc1ccc(O)cc1)C(=O)N[C@@H](CC(C)C)C(=O)N[C@H](C(=O)N[C@@H](CCC(=O)O)C(=O)NCC(=O)NCC(=O)N1CCC[C@H]1C(=O)N[C@@H](CO)C(=O)N[C@@H](CO)C(=O)N[C@@H](CCCCNC(=O)COCCOCCNC(=O)COCCOCCNC(=O)CC[C@H](NC(=O)CCCCCCCCCCCCCCCCCCC(=O)O)C(=O)O)C(=O)N[C@@H](C)C(=O)N1CCC[C@H]1C(=O)N1CCC[C@H]1C(=O)N1CCC[C@H]1C(=O)N[C@@H](CO)C(N)=O)[C@@H](C)CC)[C@@H](C)CC [Example 43] (H-Y[Aib]EGTFTSDYSILLDKIAQ[Aib]AFIEYLIEGGPSSK([AEEA-AEEA-γGlu-C20 diacid])APPPS-NH2; N-terminus assumed)

Further lines, the molecule ahead of its results:

Row | SMILES | EC50 [1] | Ki (human GIP receptor) | Ki (human GLP-1R) | Ki (human Gcg receptor) | EC50 [2]
3 | CC[C@H](C)[C@H](NC(=O)[C@H](CCCCN)NC(=O)[C@H](CC(=O)O)NC(=O)[C@H](CC(C)C)NC(=O)[C@H](CC(C)C)NC(=O)[C@@H](NC(=O)[C@H](CO)NC(=O)[C@H](Cc1ccc(O)cc1)NC(=O)[C@H](CC(=O)O)NC(=O)[C@H](CO)NC(=O)[C@@H](NC(=O)[C@H](Cc1ccccc1)NC(=O)[C@@H](NC(=O)CNC(=O)[C@H](CCC(=O)O)NC(=O)C(C)(C)NC(=O)[C@@H](N)Cc1ccc(O)cc1)[C@@H](C)O)[C@@H](C)O)[C@@H](C)CC)C(=O)N[C@@H](C)C(=O)N[C@@H](CCC(N)=O)C(=O)NC(C)(C)C(=O)N[C@@H](C)C(=O)N[C@@H](Cc1ccccc1)C(=O)N[C@H](C(=O)N[C@@H](CCC(=O)O)C(=O)N[C@@H](Cc1ccc(O)cc1)C(=O)N[C@@H](CC(C)C)C(=O)N[C@H](C(=O)N[C@@H](CCC(=O)O)C(=O)NCC(=O)NCC(=O)N[C@@H](CCCCNC(=O)COCCOCCNC(=O)COCCOCCNC(=O)CC[C@H](NC(=O)CCCCCCCCCCCCCCCCCCC(=O)O)C(=O)O)C(=O)N[C@@H](CO)C(=O)N[C@@H](CO)C(=O)NCC(=O)N[C@@H](C)C(=O)N1CCC[C@H]1C(=O)N1CCC[C@H]1C(=O)N1CCC[C@H]1C(=O)N[C@@H](CO)C(N)=O)[C@@H](C)CC)[C@@H](C)CC [Example 40] (H-Y[Aib]EGTFTSDYSILLDKIAQ[Aib]AFIEYLIEGGK([AEEA-AEEA-γGlu-C20 diacid])SSGAPPPS-NH2) | 0.136 nM | 0.0345 nM | 7.56 nM | 150 nM | 0.746 nM
4 | CC[C@H](C)[C@H](NC(=O)[C@H](CCCCN)NC(=O)[C@H](CC(=O)O)NC(=O)[C@H](CC(C)C)NC(=O)[C@H](CC(C)C)NC(=O)[C@@H](NC(=O)[C@H](CO)NC(=O)[C@H](Cc1ccc(O)cc1)NC(=O)[C@H](CC(=O)O)NC(=O)[C@H](CO)NC(=O)[C@@H](NC(=O)[C@H](Cc1ccccc1)NC(=O)[C@@H](NC(=O)CNC(=O)[C@H](CCC(=O)O)NC(=O)C(C)(C)NC(=O)[C@@H](N)Cc1ccc(O)cc1)[C@@H](C)O)[C@@H](C)O)[C@@H](C)CC)C(=O)N[C@@H](C)C(=O)N[C@@H](CCC(N)=O)C(=O)NC(C)(C)C(=O)N[C@@H](C)C(=O)N[C@@H](Cc1ccccc1)C(=O)N[C@H](C(=O)N[C@@H](CCC(=O)O)C(=O)N[C@@H](Cc1ccc(O)cc1)C(=O)N[C@@H](CC(C)C)C(=O)N[C@H](C(=O)N[C@@H](CCC(=O)O)C(=O)NCC(=O)NCC(=O)N1CCC[C@H]1C(=O)N[C@@H](CCCCNC(=O)COCCOCCNC(=O)COCCOCCNC(=O)CC[C@H](NC(=O)CCCCCCCCCCCCCCCCCCC(=O)O)C(=O)O)C(=O)N[C@@H](CO)C(=O)NCC(=O)N[C@@H](C)C(=O)N1CCC[C@H]1C(=O)N1CCC[C@H]1C(=O)N1CCC[C@H]1C(=O)N[C@@H](CO)C(N)=O)[C@@H](C)CC)[C@@H](C)CC [Example 41] (H-Y[Aib]EGTFTSDYSILLDKIAQ[Aib]AFIEYLIEGGPK([AEEA-AEEA-γGlu-C20 diacid])SGAPPPS-NH2) | 0.229 nM | 0.0551 nM | 13.4 nM | 165 nM | 0.96 nM
5 | CC[C@H](C)[C@H](NC(=O)[C@H](CCCCN)NC(=O)[C@H](CC(=O)O)NC(=O)[C@H](CC(C)C)NC(=O)[C@H](CC(C)C)NC(=O)[C@@H](NC(=O)[C@H](CO)NC(=O)[C@H](Cc1ccc(O)cc1)NC(=O)[C@H](CC(=O)O)NC(=O)[C@H](CO)NC(=O)[C@@H](NC(=O)[C@H](Cc1ccccc1)NC(=O)[C@@H](NC(=O)CNC(=O)[C@H](CCC(=O)O)NC(=O)C(C)(C)NC(=O)[C@@H](N)Cc1ccc(O)cc1)[C@@H](C)O)[C@@H](C)O)[C@@H](C)CC)C(=O)N[C@@H](C)C(=O)N[C@@H](CCC(N)=O)C(=O)NC(C)(C)C(=O)N[C@@H](C)C(=O)N[C@@H](Cc1ccccc1)C(=O)N[C@H](C(=O)N[C@@H](CCC(=O)O)C(=O)N[C@@H](Cc1ccc(O)cc1)C(=O)N[C@@H](CC(C)C)C(=O)N[C@H](C(=O)N[C@@H](CCC(=O)O)C(=O)NCC(=O)NCC(=O)N1CCC[C@H]1C(=O)N[C@@H](CO)C(=O)N[C@@H](CO)C(=O)NCC(=O)N[C@@H](CCCCNC(=O)COCCOCCNC(=O)COCCOCCNC(=O)CC[C@H](NC(=O)CCCCCCCCCCCCCCCCCCC(=O)O)C(=O)O)C(=O)N1CCC[C@H]1C(=O)N1CCC[C@H]1C(=O)N1CCC[C@H]1C(=O)N[C@@H](CO)C(N)=O)[C@@H](C)CC)[C@@H](C)CC [Example 44] (H-Y[Aib]EGTFTSDYSILLDKIAQ[Aib]AFIEYLIEGGPSSGK([AEEA-AEEA-γGlu-C20 diacid])PPPS-NH2) | 0.128 nM | 0.0516 nM | 10.6 nM | 121 nM | 0.752 nM
